How the values were obtained:
[1] = test system: human osteosarcoma cells (MG-63); experiment: Assessment of cytotoxicity by SRB assay (MG-63); format: cell-based; settings: 0.01 μM to 100 μM, 72 h
Protocol: (§1) The human prostate cancer cells (PC3) and human osteosarcoma cells (MG-63) were obtained from Nawah Scientific Inc. (Mokatam, Cairo, Egypt) and cultured in DMEM (Dulbecco's modified eagle's medium), Gibco, USA, supplemented with fetal bovine serum (FBS) at a concentration of 10% and 100 U/mL of penicillin and streptomycin (PS). The Cells were incubated at 37° C. in a humidified environment that contained 5% C02.
(§2) Cells were seeded in 96-well plates as aliquots of 100 μL cell suspension and incubated in a complete media for 24 h. Afterward, cells were treated with 2-(1-(2-hydroxypropyl)-4,5-diphenyl-1H-imidazol-2-yl)pyridine at diverse concentrations ranging from 0.01 μM to 100 μM for 72 h. Then, cells were fixed at 4° C. for one hour with 150 μL of 10% trichloroacetic acid (TCA). After washing the cells five times with distilled water, 70 μL of sulforhodamine (SRB) solution (0.4% w/v) was added and incubated for 10 min at room temperature in a dark place. […] Then, 150 μL of Tris pH 10.5 (10 mM) was added, and the absorbance was measured at 540 nm using a BMG LABTECH®-FLUOstar Omega microplate reader (Ortenberg, Germany). Half maximal inhibitory concentrations (IC50) values were calculated for each experiment using GraphPad Prism 6 software. […]
(§3) The inhibition was calculated using the following equation: Inhibition %=100−Average Viability

[2] = test system: human prostate cancer cells (PC3); experiment: Assessment of cytotoxicity by SRB assay (PC3); format: cell-based; settings: 0.01 μM to 100 μM, 72 h
Protocol: as §1, §2, §3

CC(O)Cn1c(-c2ccccn2)nc(-c2ccccc2)c1-c1ccccc1 (stereo not drawn) [2-(1-(2-hydroxypropyl)-4,5-diphenyl-1H-imidazol-2-yl)pyridine]
melting point: 112 to 114 °C
antiproliferative activity against osteosarcoma (MG-63) cells [1]: excellent antiproliferative activities
antiproliferative activity against prostate cancer cells (PC3) [2]: excellent antiproliferative activities
